{
  "source": "patent US20210253651A1",
  "about": "“METHOD FOR PRODUCING ORGANIC COMPOUND-ENCAPSULATING FERRITIN” (Ajinomoto Co., Inc., priority 2018, published 2021)",
  "key": {"[1]": {"biological_target": "T1, HER2a-FTH ferritin (Homo sapiens, UniProt P02794)", "T1 construct": "pET20-FTH carrying a DNA encoding a human-derived ferritin H chain monomer as a template; made in house; host or cells: Escherichia coli BL21 (DE3), plasmid pET20-HER2a-FTH", "T1 sequence (P02794 with tags, fused parts or gaps limits assumed)": "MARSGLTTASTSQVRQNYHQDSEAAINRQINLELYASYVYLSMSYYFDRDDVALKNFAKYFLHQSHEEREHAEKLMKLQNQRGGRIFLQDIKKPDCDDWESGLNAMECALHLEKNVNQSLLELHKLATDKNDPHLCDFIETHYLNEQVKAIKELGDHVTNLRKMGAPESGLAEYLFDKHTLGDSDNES", "assay": "one-step incorporation of DOX into HER2a-FTH ferritin", "format": "physicochemical", "settings": "pH 9, 50° C., 60 minutes, DOX 0.3 mg/L", "experimental": "First, PCR was carried out using pET20-FTH carrying a DNA encoding a human-derived ferritin H chain monomer as a template as well as the following primers: 5′-[…]-3′(SEQ ID NO: 15) and 5′-[…]-3′(SEQ ID NO: 16) in order to obtain a DNA encoding the human-derived ferritin H chain (HER2a-FTH) monomer in which a cancer recognition peptide (HER2a: MARSGL (SEQ ID NO: 14); M Houimel et al., Int. J. Cancer 92, 748-755. (2001) which is incorporated herein by reference in its entirety) is inserted and fused at the N-terminus of the ferritin monomer. The resulting PCR products were purified using Wizard DNA Clean-Up System (Promega Corporation), and then treated with restriction enzymes, Dpnl and Ndel (Takara Bio Inc.) for self-ligation in order to construct an expression plasmid (pET20-HER2a-FTH) carrying a gene encoding HER2a-FTH. […]\nDOX was mixed with 1 mL of 50 mM Tris-HCl buffer (pH 9) that contains each mutate ferritin at a final concentration of 1 mg/mL, to achieve a final concentration of 0.3 mg/L, and then the resulting solutions were left to stand at 50° C. for 60 minutes. […] The concentration of contained protein was determined using the protein assay CBB solution (Nacalai Tesque, Inc.) as well as bovine albumin as a standard. The DOX concentration was determined based on analysis of the absorbance at 480 nm."}, "[2]": {"biological_target": "T2, FTH ferritin (Homo sapiens, UniProt P02794)", "T2 construct": "made in house; host or cells: Escherichia coli BL21 (DE3), plasmid pET20-FTH", "T2 sequence (P02794 whole entry)": "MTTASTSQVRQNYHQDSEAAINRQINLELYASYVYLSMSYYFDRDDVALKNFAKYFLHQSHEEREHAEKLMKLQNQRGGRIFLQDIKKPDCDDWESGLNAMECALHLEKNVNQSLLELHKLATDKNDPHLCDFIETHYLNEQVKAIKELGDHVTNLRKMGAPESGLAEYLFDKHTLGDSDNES", "assay": "one-step process incorporation of DOX into FTH ferritin", "format": "physicochemical", "settings": "for incorporation efficiency of the reagent: FTH ferritin 1 mg/mL; for number of molecules of DOX incorporated into one molecule of FTH ferritin: presumed, average", "experimental": "(§1) In this reaction, an acetate buffer was used for pH 3, 4, 5 and 6, while Tris-HCl buffer was used for pH 7, 8 and 9. After the standing, 0.5 mL of water was added to the resulting solution. After the resulting solution was centrifuged (at 15,000 rpm for one minute), the supernatant was injected into a desalting column PD-10 (Sephadex G-25 filled product, GE Healthcare Inc.) equilibrated with 10 mM Tris-HCl buffer (pH 8) to separate the protein from a reagent that was not encapsulated. Whole amount (3.5 mL) of the resulting solution was concentrated to 0.1 mL by centrifugal ultrafiltration using Vivaspin 20-100K (GE Healthcare Inc.), and then absorbances at 280 nm and 480 nm were measured using spectrophotometer (DU-800, Beckman Coulter Inc.).\nas §1, with “After” for “In this reaction, an acetate buffer was used for pH 3, 4, 5 and 6, while Tris-HCl buffer was used for pH 7, 8 and 9. After”, “into the” for “into a”\nAfter the standing, 0.5 mL water was added to the resulting solution. After the resulting solution was centrifuged (at 15,000 rpm for one minute), the supernatant was injected into the desalting column PD-10 (Sephadex G-25 filled product, GE Healthcare Inc.) equilibrated with 10 mM Tris-HCl buffer (pH 8) to separate the protein from a reagent that was not encapsulated. Whole amount (3.5 mL) of the resulting solution was concentrated by centrifugal ultrafiltration using Vivaspin 20-100K (GE Healthcare Inc.). Glycine-HCl buffer (pH 2.3) was added to the resulting solution to achieve a final concentration of 100 mM, then a volume was controlled to 0.2 mL. […] The absorbance at 480 nm was measured using spectrophotometer (DU-800, Beckman Coulter Inc.) for the resulting solution in order to determine the concentration of DOX. The concentration of protein in the solution was determined using the protein assay CBB solution (Nacalai Tesque, Inc.) as well as bovine albumin as a standard.\nAfter the standing, 0.5 mL water was added to the resulting solution. After the resulting solution was centrifuged (at 15,000 rpm for one minute), the supernatant was injected into the desalting column PD-10 (Sephadex G-25 filled product, GE Healthcare Inc.) equilibrated with 10 mM Tris-HCl buffer (pH 8) to separate the protein from a reagent that was not encapsulated. Whole amount (3.5 mL) of the resulting solution was concentrated by centrifugal ultrafiltration using Vivaspin 20-100K (GE Healthcare Inc.). Glycine-HCl buffer (pH 2.3) was added to the resulting solution to achieve a final concentration of 100 mM, then a volume was controlled to 0.5 mL. The absorbance at 480 nm was measured using spectrophotometer (DU-800, Beckman Coulter Inc.) for the resulting solution in order to determine the concentration of DOX. The concentration of protein in the solution was determined using the protein assay CBB solution (Nacalai Tesque, Inc.) as well as bovine albumin as a standard."}, "[3]": {"settings": "pH 9, 60° C., after 30 minutes, DOX 0.1 mg/mL"}},
  "note": "Counter-ions that a name gives are not always drawn.",
  "data": [
    {"smiles": "COc1cccc2c1C(=O)c1c(O)c3c(c(O)c1C2=O)C[C@@](O)(C(=O)CO)C[C@@H]3OC1CC(N)C(O)C(C)O1", "note": "(stereo partly drawn) [DOX, Doxorubicin hydrochloride]", "values": [
      {"measurement": "incorporation efficiency of the reagent", "setting": "[1]", "result": "14.6 % (wt)"},
      {"measurement": "incorporation efficiency of the reagent", "setting": "[2]; pH 6 or less, 25° C., 60 minutes, DOX 0.1 mg/mL", "result": "≤ 0.5 ° (wt)"},
      {"measurement": "incorporation efficiency of the reagent", "setting": "[2]; pH 9, 25° C., 60 minutes, DOX 0.1 mg/mL", "result": "≥ 1 % (wt)"},
      {"measurement": "incorporation efficiency of the reagent", "setting": "[2]; pH 9, 60° C., 60 minutes, DOX 0.1 mg/mL", "result": "≥ 5 % (wt)"},
      {"measurement": "number of molecules of DOX incorporated into one molecule of FTH ferritin", "setting": "[2]; pH 9, 60° C., 60 minutes, at maximum incorporation", "result": 165},
      {"measurement": "incorporation efficiency of the reagent at the maximum", "setting": "[2]; pH 9, 60° C., 60 minutes, concentration ratio of FTH ferritin to DOX varied (10:3 or less)", "result": "16 % (wt)"},
      {"measurement": "maximum incorporation efficiency of the reagent", "setting": "[2]; [3]", "result": "5 % (wt)"},
      {"measurement": "number of molecules of DOX incorporated into one molecule of FTH ferritin", "setting": "[2]; [3]", "result": 50},
      {"measurement": "rate of DOX incorporation", "setting": "[2]; pH 9, 60° C., until 30 minutes", "result": "1.7 mg-DOX/minute per gram of ferritin"}
    ]}
  ]
}
